# According to ChEMBL document CHEMBL3885881, “DrugMatrix”:
# Species on record: Rattus norvegicus
# Format: toxicity, organism-based, Sprague-Dawley
# Conditions: in vivo, po, 24 h, route oral GAVAGE, time 1 day, vehicle .5 % CMC; for ABSOLUTE EOSINOPHIL / ABSOLUTE LYMPHOCYTE / ABSOLUTE MONOCYTE / BASOPHIL / EOSINOPHIL / ERYTHROCYTE COUNT / HEMATOCRIT / HEMOGLOBIN / LEUKOCYTE COUNT / LYMPHOCYTE / MEAN CORPUSCULAR HEMOGLOBIN / MEAN CORPUSCULAR HEMOGLOBIN CONCENTRATION / MEAN CORPUSCULAR VOLUME / MONOCYTE / NEUTROPHIL / PLATELET COUNT / ABSOLUTE BASOPHIL: tissue Blood; for ALANINE AMINOTRANSFERASE / ALBUMIN / ALKALINE PHOSPHATASE / ASPARTATE AMINOTRANSFERASE / BLOOD UREA NITROGEN / CARBON DIOXIDE / CHLORIDE / CHOLESTEROL / CREATINE PHOSPHOKINASE / CREATININE / GLUCOSE / LACTATE DEHYDROGENASE / LIPASE / PHOSPHORUS / POTASSIUM / SODIUM / TOTAL BILIRUBIN / TOTAL PROTEIN / URIC ACID: tissue Plasma
# Description: DrugMatrix - Regimen: Single
structure (smiles),measurement,setting,value
CN(C)CCN(Cc1cccs1)c1ccccn1,ABSOLUTE EOSINOPHIL,"0 mg/kg, dose level Control",47.5 cells/µL
same,ABSOLUTE LYMPHOCYTE,"0 mg/kg, dose level Control",8340 cells/µL
same,ABSOLUTE MONOCYTE,"0 mg/kg, dose level Control",260 cells/µL
same,BASOPHIL,"0 mg/kg, dose level Control",0.33%
same,EOSINOPHIL,"0 mg/kg, dose level Control",0.45%
same,ERYTHROCYTE COUNT,"0 mg/kg, dose level Control",6.31 x10E6/uL
same,HEMATOCRIT,"0 mg/kg, dose level Control",42.88%
same,HEMOGLOBIN,"0 mg/kg, dose level Control",13 G/DL
same,LEUKOCYTE COUNT,"0 mg/kg, dose level Control",10.38 x10E3/uL
same,LYMPHOCYTE,"0 mg/kg, dose level Control",80.53%
same,MEAN CORPUSCULAR HEMOGLOBIN,"0 mg/kg, dose level Control",20.6 pg
same,MEAN CORPUSCULAR HEMOGLOBIN CONCENTRATION,"0 mg/kg, dose level Control",30.3 G/DL
same,MEAN CORPUSCULAR VOLUME,"0 mg/kg, dose level Control",67.9 fL
same,MONOCYTE,"0 mg/kg, dose level Control",2.4%
same,NEUTROPHIL,"0 mg/kg, dose level Control",15.08%
same,PLATELET COUNT,"0 mg/kg, dose level Control",1192.5 x10E3/uL
same,ALANINE AMINOTRANSFERASE,"0 mg/kg, dose level Control",47 u/L
same,ALBUMIN,"0 mg/kg, dose level Control",3.55 G/DL
same,ALKALINE PHOSPHATASE,"0 mg/kg, dose level Control",460.75 u/L
same,ASPARTATE AMINOTRANSFERASE,"0 mg/kg, dose level Control",71.75 u/L
same,BLOOD UREA NITROGEN,"0 mg/kg, dose level Control",13.75 mg/dL
same,CARBON DIOXIDE,"0 mg/kg, dose level Control",36.75 mmol/L
same,CHLORIDE,"0 mg/kg, dose level Control",107.25 MEQ/L
same,CHOLESTEROL,"0 mg/kg, dose level Control",85.25 mg/dL
same,CREATINE PHOSPHOKINASE,"0 mg/kg, dose level Control",373 u/L
same,CREATININE,"0 mg/kg, dose level Control",0.67 mg/dL
same,GLUCOSE,"0 mg/kg, dose level Control",173.25 mg/dL
same,LACTATE DEHYDROGENASE,"0 mg/kg, dose level Control",241.25 u/L
same,LIPASE,"0 mg/kg, dose level Control",39.25 u/L
same,PHOSPHORUS,"0 mg/kg, dose level Control",13.5 mg/dL
same,POTASSIUM,"0 mg/kg, dose level Control",6.9 MEQ/L
same,SODIUM,"0 mg/kg, dose level Control",153 MEQ/L
same,TOTAL BILIRUBIN,"0 mg/kg, dose level Control",0.3 mg/dL
same,TOTAL PROTEIN,"0 mg/kg, dose level Control",6.05 G/DL
same,URIC ACID,"0 mg/kg, dose level Control",1.07 mg/dL
same,ABSOLUTE BASOPHIL,"10 mg/kg, dose level Low",50 cells/µL
same,ABSOLUTE EOSINOPHIL,"10 mg/kg, dose level Low",57.5 cells/µL
same,ABSOLUTE LYMPHOCYTE,"10 mg/kg, dose level Low",6900 cells/µL
same,ABSOLUTE MONOCYTE,"10 mg/kg, dose level Low",160 cells/µL
same,BASOPHIL,"10 mg/kg, dose level Low",0.62%
same,EOSINOPHIL,"10 mg/kg, dose level Low",0.68%
same,ERYTHROCYTE COUNT,"10 mg/kg, dose level Low",6.69 x10E6/uL
same,HEMATOCRIT,"10 mg/kg, dose level Low",45.23%
same,HEMOGLOBIN,"10 mg/kg, dose level Low",13.75 G/DL
same,LEUKOCYTE COUNT,"10 mg/kg, dose level Low",8.71 x10E3/uL
same,LYMPHOCYTE,"10 mg/kg, dose level Low",79.03%
same,MEAN CORPUSCULAR HEMOGLOBIN,"10 mg/kg, dose level Low",20.57 pg
same,MEAN CORPUSCULAR HEMOGLOBIN CONCENTRATION,"10 mg/kg, dose level Low",30.38 G/DL
same,MEAN CORPUSCULAR VOLUME,"10 mg/kg, dose level Low",67.67 fL
same,MONOCYTE,"10 mg/kg, dose level Low",1.82%
same,NEUTROPHIL,"10 mg/kg, dose level Low",16.77%
same,PLATELET COUNT,"10 mg/kg, dose level Low",1228.25 x10E3/uL
same,ALANINE AMINOTRANSFERASE,"10 mg/kg, dose level Low",48.75 u/L
same,ALBUMIN,"10 mg/kg, dose level Low",3.7 G/DL
same,ALKALINE PHOSPHATASE,"10 mg/kg, dose level Low",472.25 u/L
same,ASPARTATE AMINOTRANSFERASE,"10 mg/kg, dose level Low",65.25 u/L
same,BLOOD UREA NITROGEN,"10 mg/kg, dose level Low",13 mg/dL
same,CARBON DIOXIDE,"10 mg/kg, dose level Low",38.5 mmol/L
same,CHLORIDE,"10 mg/kg, dose level Low",107.25 MEQ/L
same,CHOLESTEROL,"10 mg/kg, dose level Low",86.75 mg/dL
same,CREATINE PHOSPHOKINASE,"10 mg/kg, dose level Low",250.75 u/L
same,CREATININE,"10 mg/kg, dose level Low",0.67 mg/dL
same,GLUCOSE,"10 mg/kg, dose level Low",167 mg/dL
same,LACTATE DEHYDROGENASE,"10 mg/kg, dose level Low",129.25 u/L
same,LIPASE,"10 mg/kg, dose level Low",38.5 u/L
same,PHOSPHORUS,"10 mg/kg, dose level Low",12.45 mg/dL
same,POTASSIUM,"10 mg/kg, dose level Low",6.83 MEQ/L
same,SODIUM,"10 mg/kg, dose level Low",153.75 MEQ/L
same,TOTAL BILIRUBIN,"10 mg/kg, dose level Low",0.3 mg/dL
same,TOTAL PROTEIN,"10 mg/kg, dose level Low",6.32 G/DL
same,URIC ACID,"10 mg/kg, dose level Low",0.98 mg/dL
same,ABSOLUTE BASOPHIL,"100 mg/kg, dose level High",130 cells/µL
same,ABSOLUTE EOSINOPHIL,"100 mg/kg, dose level High",55 cells/µL
same,ABSOLUTE LYMPHOCYTE,"100 mg/kg, dose level High",9590 cells/µL
same,ABSOLUTE MONOCYTE,"100 mg/kg, dose level High",430 cells/µL
same,BASOPHIL,"100 mg/kg, dose level High",0.95%
same,EOSINOPHIL,"100 mg/kg, dose level High",0.5%
same,ERYTHROCYTE COUNT,"100 mg/kg, dose level High",6.9 x10E6/uL
same,HEMATOCRIT,"100 mg/kg, dose level High",46.1%
same,HEMOGLOBIN,"100 mg/kg, dose level High",14.12 G/DL
same,LEUKOCYTE COUNT,"100 mg/kg, dose level High",11.89 x10E3/uL
same,LYMPHOCYTE,"100 mg/kg, dose level High",80.6%
same,MEAN CORPUSCULAR HEMOGLOBIN,"100 mg/kg, dose level High",20.48 pg
same,MEAN CORPUSCULAR HEMOGLOBIN CONCENTRATION,"100 mg/kg, dose level High",30.62 G/DL
same,MEAN CORPUSCULAR VOLUME,"100 mg/kg, dose level High",66.9 fL
same,MONOCYTE,"100 mg/kg, dose level High",3.62%
same,NEUTROPHIL,"100 mg/kg, dose level High",12.9%
same,PLATELET COUNT,"100 mg/kg, dose level High",1177.75 x10E3/uL
same,ALANINE AMINOTRANSFERASE,"100 mg/kg, dose level High",102.25 u/L
same,ALBUMIN,"100 mg/kg, dose level High",3.6 G/DL
same,ALKALINE PHOSPHATASE,"100 mg/kg, dose level High",460.75 u/L
same,ASPARTATE AMINOTRANSFERASE,"100 mg/kg, dose level High",150.5 u/L
same,BLOOD UREA NITROGEN,"100 mg/kg, dose level High",13.5 mg/dL
same,CARBON DIOXIDE,"100 mg/kg, dose level High",37.75 mmol/L
same,CHLORIDE,"100 mg/kg, dose level High",108 MEQ/L
same,CHOLESTEROL,"100 mg/kg, dose level High",61.5 mg/dL
same,CREATINE PHOSPHOKINASE,"100 mg/kg, dose level High",211.25 u/L
same,CREATININE,"100 mg/kg, dose level High",0.67 mg/dL
same,GLUCOSE,"100 mg/kg, dose level High",169.5 mg/dL
same,LACTATE DEHYDROGENASE,"100 mg/kg, dose level High",94.25 u/L
same,LIPASE,"100 mg/kg, dose level High",24.75 u/L
same,PHOSPHORUS,"100 mg/kg, dose level High",13.18 mg/dL
same,POTASSIUM,"100 mg/kg, dose level High",7.25 MEQ/L
same,SODIUM,"100 mg/kg, dose level High",154.25 MEQ/L
same,TOTAL BILIRUBIN,"100 mg/kg, dose level High",0.3 mg/dL
same,TOTAL PROTEIN,"100 mg/kg, dose level High",6.08 G/DL
same,URIC ACID,"100 mg/kg, dose level High",1.07 mg/dL
